In patent US7253176B1, “Immunosuppressive effects of 8-substituted xanthine derivatives” (K.U. Leuven Research & Development, priority 2000, dated 2007):

How the values were obtained:
Assay type in all cases: cell-based, human
Highly purified T cells [1] = test: T cell proliferation induced by anti-CD28 mAb+PMA (BrdU); conditions: read-out: IC50 aCD28
Description: (§1) Various models may be used for testing an immunosuppressive effect. In vivo, for example, different transplantation models are available. They are strongly influenced by different immunogenicities, depending on the donor and recipient species used and depending on the nature of the transplanted organ. The survival time of transplanted organs can thus be used to measure the suppression of the immune response. In vitro, there exist also various models. The most used are lymphocyte activation tests. Usually activation is measured via lymphocyte proliferation. Inhibition of proliferation thus always means immunosuppression under the experimental conditions applied. There exist different stimuli for lymphocyte activation: • coculture of lymphocytes of […] (MLR=mixed lymphocyte reaction): lymphocytes expressing different minor and major antigens of the HLA-DR type (=allogens) activate each other non-specifically. • CD3 assay: here there is an activation of the T-lymphocytes via an exogenously added antibody (OKT3). This antibody reacts against the CD3 molecule located on the lymphocyte membrane. This molecule has a […]. […] This molecule is also located on the lymphocyte membrane, and delivers strong costimulatory signals. […] Reagents
T cells were purified by removing non-T cells. Briefly, monocytes were removed by cold agglutination. The resulting lymphoid cells were further purified by a cell enrichment immunocolumn [Cellect Human T (Biotex, Edmonton, Alberta, Canada)] by a process of negative selection. More than 95% of the B cells were removed with this procedure. After depletion, the resulting T cell preparation was highly purified explaining these cells could not be activated by PHA or rIL-2 alone at concentrations capable of stimulating RBMC prior to deletion.
(§2) Measurements of T Cell Proliferations Induced by Anti-CD3 mAB+PMA or Anti-CD28 mAb+PMA
(§3) Highly purified T cells (10^6/ml) were stimulated by immobilized anti-CD3 or anti-CD28 mAb in the presence of PMA. Anti-CD3 mAb (CLB-CD3; CLB, Amsterdam, The Netherlands) were fixed on the 96-microwell plates by incubating the wells with 50 μl of mAb solution […] 50 μl (1/650 dilution in culture medium) was added directly to the wells. Further, 20 μl PMA (Sigma, St. Louis, Mo., USA) solution (final concentration: 0.5 ng/ml) was added. Subsequently, 20 μl of immunosuppressants were added by serial dilution in triplicate wells. Finally 100 μl of the T cell suspension (10^6/ml) was added. After 48-hour incubation at 37° C. in 5% CO2 20 μl BrdU (100 μM solution) (Cell Proliferation Elisa, Boehringer-Mannheim Belgium) was added to each well. After a further overnight incubation the T cell proliferation was measured using a calorimetric immunoassay for qualification of cell proliferation based on measurements of the incorporation of BrdU during DNA synthesis. The optical density (OD) was measured by a Behring EL311 place reader at 450 nm (reference wavelength: […]). The percent suppression of proliferation by drugs was counted using the formula: […]

Highly purified T cells [2] = test: T cell proliferation induced by anti-CD3 mAb+PMA (BrdU); conditions: for IC50: read-out: IC50 aCD3
Description: T cells were purified by removing non-T cells. Briefly, monocytes were removed by cold agglutination. The resulting lymphoid cells were further purified by a cell enrichment immunocolumn [Cellect Human T (Biotex, Edmonton, Alberta, Canada)] by a process of negative selection.
as §2, §3

[3] = tested on: Peripheral blood mononuclear cells (PBMC); test: Mixed lymphocyte reaction (MLR), [3H]-thymidine incorporation
Description: as §1
Mixed Lymphocyte Reaction
Peripheral blood mononuclear cells (PBMC) were isolated from heparinized peripheral blood by density gradient centrifugation over Lymphoprep (Nycomed, Maorstua, Norway). Allogeneic PBMC or EBV-transformed human B cells [RPMI1788 (ATCC name CCL156)] which strongly express B7-1 and B7-2 were used as stimulator calls after irradiation with 30 Gy. MLR was performed in triplicate wells. After 5 days incubation at 37° C., 1 μCi [^3H]-thymidine was added to each cup. After a further 16 hours incubation, cells were harvested and counted in a β-counter.
The percent suppression of proliferation by drugs was counted using the formula: […]

[4] = lowest concentration giving 50% suppression of the MLR
[5] = Homo sapiens, T-cell, anti-CD28 mAb+PMA pathway
[6] = Homo sapiens, T-cell, anti-CD3 mAb+PMA pathway
[7] = Homo sapiens, PBMC, lowest concentration giving 50% suppression of the MLR
[8] = Homo sapiens, T-cell, immunosuppressants for comparison, anti-CD3 mAb+PMA

| Compound | IC50 (Highly purified T cells [1]; anti-CD28 mAb+PMA pathway) | IC50 (Highly purified T cells [2]; anti-CD3 mAb+PMA pathway) | IC50 [3, 4] | further results |
| --- | --- | --- | --- | --- |
| CCCn1c(=O)c2[nH]c(C3CCCC3)nc2n(CCC)c1=S [Compound 65] | 75 µM | 135 µM | > 200 µM | – |
| Cn1c(=O)c2[nH]c(-c3ccco3)nc2n(C)c1=S [Compound 60] | 190 µM | – | > 200 µM | – |
| Cn1c(=O)c2[nH]c(C3CCCC3)nc2n(C)c1=O [Compound 62] | 190 µM | > 200 µM | > 200 µM | – |
| 1,3,7-trimethyl-8-(4-trifluoromethylfenyl)-xanthine [Compound 10] | 30 µM | 20 µM | 50 µM | – |
| Cc1oncc1C(=O)Nc1ccc(C(F)(F)F)cc1 [Leflunomide, reference compound] | – | – | – | IC50 (Highly purified T cells [1]; [5]): 20 µM; IC50 (Highly purified T cells [2]; [6]): 15 µM; IC50 [3, 7]: 25 µM |
| CCOC(=O)CCCn1c(=O)c2c(ncn2C)n(C)c1=O [Compound 24, 1-(3-ethoxycarbonyl)propyl-3,7-dimethylxanthine] | 150 µM | 170 µM | > 200 µM | – |
| 1,3-dimethyl-7-propyl-8-fenylxanthine [Compound 112] | 40 µM | 45 µM | 20 µM | – |
| C#CCn1c(=O)n(C)c(=O)c2c1ncn2C [Compound 67, 1,7-dimethyl-3-propynylxanthine] | – | > 200 µM | > 200 µM | – |
| Cn1c(=O)c2[nH]c(-c3ccc(-c4ccccc4)cc3)nc2n(C)c1=O [Compound 115] | 160 µM | > 200 µM | 110 µM | – |
| Cn1c(=O)c2[nH]c(-c3ccco3)nc2n(C)c1=O [Compound 58] | 170 µM | 160 µM | > 200 µM | – |
| CCCn1c(=O)c2[nH]c(-c3ccc(C(F)(F)F)cc3)nc2n(CCC)c1=O [Compound 48] | 150 µM | 160 µM | 180 µM | – |
| CCCn1c(=O)c2[nH]c(-c3ccc(OCC(=O)O)cc3)nc2n(CCC)c1=S [Compound 28] | 75 µM | 150 µM | 120 µM | – |
| CCCn1c(=O)c2[nH]c(-c3ccco3)nc2n(CCC)c1=S [Compound 61] | 110 µM | 170 µM | 100 µM | – |
| COc1c(C)c2c(c(O)c1C/C=C(\C)CCC(=O)O)C(=O)OC2 [Moferil, Mycophenolic acid, reference compound] | – | – | – | IC50 (Highly purified T cells [1]; Homo sapiens, T-cell, immunosuppressants for comparison, anti-CD28 mAb+PMA): 0.05 µM; IC50 (Highly purified T cells [2]; [8]): 0.05 µM; IC50 [3, 7]: < 0.5 µM |
| CCCn1c(=O)c2[nH]c(C3CCCC3)nc2n(CCC)c1=O [Compound 63] | 100 µM | 135 µM | > 200 µM | – |
| Cn1c(=O)c2[nH]cnc2n(CC(C)(C)C)c1=O [Compound 69] | 45 µM | 110 µM | 120 µM | – |
| Cn1c(=O)c2c(nc(C3CCCC3)n2C)n(C)c1=S [Compound 66] | 170 µM | 170 µM | > 200 µM | – |

| Compound | IC50 (Highly purified T cells [1]; anti-CD28 mAb+PMA pathway) | IC50 (Highly purified T cells [2]; anti-CD3 mAb+PMA pathway) | IC50 [3, 4] | further results |
| --- | --- | --- | --- | --- |
| 1,7-diallyl-3-propyl-8-fenylxanthine [Compound 114] | 70 µM | 85 µM | 15 µM | – |
| Cn1c(-c2ccc(C(F)(F)F)cc2)nc2c1c(=O)[nH]c(=O)n2C [Compound 83] | 150 µM | > 200 µM | > 200 µM | – |
| 1,3-dipropyl-2-thio-8-[4-((((N-2-aminoethyl)-amino)carbonyl)methyl)oxy)fenyl]xanthine [Compound 35] | 70 µM | 50 µM | 50 µM | – |
| C=CC[C@@H]1/C=C(\C)C[C@H](C)C[C@H](OC)[C@H]2O[C@@](O)(C(=O)C(=O)N3CCCC[C@H]3C(=O)O[C@H](/C(C)=C/[C@@H]3CC[C@@H](O)[C@H](OC)C3)[C@H](C)[C@@H](O)CC1=O)[C@H](C)C[C@@H]2OC [FK506, reference compound] | – | – | – | IC50 (Highly purified T cells [2]; [8]): 0.001 µM; activity in the anti-CD3+PMA test (Highly purified T cells [2]; in words): active; IC50 ([3]; Homo sapiens, PBMC, immunosuppressants for comparison): 0.001 µM |
| Cn1cnc2c1c(=O)n(CCCC(=O)O)c(=O)n2C [Compound 23, 1-(3-carboxypropyl)-3,7-dimethylxanthine] | – | – | – | IC50 (Highly purified T cells [1]; [5]): > 200 µM; IC50 (Highly purified T cells [2]; [6]): > 200 µM; IC50 [3, 7]: > 200 µM |
| CC#Cn1c(=O)c2c(ncn2C)n(C)c1=O [Compound 1, 1-propynyl-3,7-dimethylxanthine] | – | – | – | IC50 (Highly purified T cells [1]; [5]): > 200 µM; IC50 (Highly purified T cells [2]; [6]): 150 µM; IC50 [3, 7]: > 200 µM |
| C#CCn1cnc2c1c(=O)n(C)c(=O)n2CC#C [Compound 3, 1-methyl-3,7-dipropynylxanthine] | 100 µM | 150 µM | 150 µM | – |
| 1,3,7-tripropyl-8-fenylxanthine [Compound 113] | 90 µM | 110 µM | 20 µM | – |
| 1,7-diallyl-3-propyl-8-(4-chlorofenyl)xanthine [Compound 119] | 30 µM | 50 µM | 15 µM | – |
| 1,7-diallyl-3-methyl-8-fenylxanthine [Compound 8] | 80 µM | 35 µM | 30 µM | – |
| 1,3-dipropyl-8-[4-dimethylamino(propyl(amino-(sulfonyl))))fenyl]xanthine [Compound 40] | 70 µM | 60 µM | 25 µM | – |
| 1,3-dimethyl-7-allyl-8-[(4-trifluoromethyl)-fenyl]xanthine [Compound 82] | 80 µM | 80 µM | 25 µM | – |
| CCCn1cnc2c1c(=O)n(CCCCC(C)O)c(=O)n2C (stereo not shown) [Compound 26] | 100 µM | 100 µM | 100 µM | – |
| Cn1cnc2c1c(=O)[nH]c(=O)n2CC(C)(C)C [Compound 70] | 140 µM | 180 µM | > 200 µM | – |
| Cn1c(=S)c2[nH]c(C3CCCC3)nc2n(C)c1=O [Compound 17] | 40 µM | 30 µM | 80 µM | – |
| CC(C)n1c(=O)n(C)c(=O)c2[nH]cnc21 [Compound 71] | – | – | 160 µM | – |
| CCCn1c(=O)c2[nH]c(-c3ccsc3)nc2n(CCC)c1=O [Compound 15] | 170 µM | > 200 µM | – | – |
